Assay results as given in US12371454B2, “Cyclic peptide compound having Kras inhibitory action” (priority 2019, dated 2025).
Starred links: 1 amine or outer side, 2 acyl side, 3 side chain; linkers in the order of their positions; H or OH if unused. Positions of bridges follow the written chain, without caps; N, C: chain ends. Non-standard residues stand in square brackets, D forms with d. Residues, ends and D or L forms follow the SMILES beside them. *: point of attachment. hPhe(3-Cl-4-CF3) = N[C@@H](CCc1ccc(C(F)(F)F)c(Cl)c1)C(=O)O; NMePhe(4-CF3) = CN[C@@H](Cc1ccc(C(F)(F)F)cc1)C(=O)O; hPhe(4-CF3) = N[C@@H](CCc1ccc(C(F)(F)F)cc1)C(=O)O; 3Oxa8azabicyclo(3.2.1)octane = C1CC2COCC1N2*; NMeAbu(4,4,4-F3) = CN[C@@H](CC(F)(F)F)C(=O)O; NMePhe(4-Me) = CN[C@@H](Cc1ccc(C)cc1)C(=O)O; NMePhe(3-F) = CN[C@@H](Cc1cccc(F)c1)C(=O)O; X33 = Cc1ccc(CC[C@H](N[*:1])C(=O)[*:2])cc1; NMeGly(cPent) = CN[C@H](C(=O)O)C1CCCC1; NMeGly(cBu) = CN[C@H](C(=O)O)C1CCC1; NMeCha = CN[C@@H](CC1CCCCC1)C(=O)O; NMeChg = CN[C@H](C(=O)O)C1CCCCC1; NMeI = CC[C@H](C)[C@H](NC)C(=O)O; NMeE = CN[C@@H](CCC(=O)O)C(=O)O; NMeD = CN[C@@H](CC(=O)O)C(=O)O; NMeL = CN[C@@H](CC(C)C)C(=O)O; NMeNva = CCC[C@H](NC)C(=O)O; NMeV = CN[C@H](C(=O)O)C(C)C; d(β3hA) = C[C@@H](N)CC(=O)O; NMeAbu = CC[C@H](NC)C(=O)O; Morpholide = C1CN(*)CCO1; NMeA = CN[C@@H](C)C(=O)O; Piperidide = C1CCN(*)CC1; Pyrrolidide = C1CCN(*)C1; Ac5c = NC1(C(=O)O)CCCC1; Aze = O=C(O)[C@@H]1CCN1; NEtG = CCNCC(=O)O; Sar = CNCC(=O)O

Key:
[1] = biological target: T1, Kras and SOS1 (biotin-tagged human Kras loaded with GDP, His-tagged human SOS1) (Homo sapiens, UniProt P01116, G12D); assay: Protein-protein interaction inhibition between Kras and SOS1 (KrasGl2D-SOS PPI) using AlphaScreen; assay type: binding; details: AlphaScreen; biotin-tagged human Kras loaded with GDP, His-tagged human SOS1; read-out: KRAS G12D-SOS PPI IC50
T1 construct: made in house; host or cells: E. coli (stated for Kras only)
T1 sequence (P01116 1-188 isoform P01116-2 G12D): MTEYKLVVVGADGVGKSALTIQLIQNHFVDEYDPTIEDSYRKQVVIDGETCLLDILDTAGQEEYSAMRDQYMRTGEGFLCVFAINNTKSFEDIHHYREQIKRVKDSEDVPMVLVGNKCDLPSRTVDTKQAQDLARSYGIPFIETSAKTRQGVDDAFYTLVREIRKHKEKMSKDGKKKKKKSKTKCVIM
Procedure, shortened: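 Binding between SOS1 and Kras is detected as bead-proximity luminescence: illuminate Ni-conjugated donors (680 nm), collect 520-620 nm emission from streptavidin-conjugated acceptors; Kras carries biotin and GDP loaded after purification, SOS1 carries a His tag.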

[2] = system: Human pancreatic cancer cell line AsPC-1; assay: Measurement of AsPC-1 cell growth inhibition (AsPC-1 CGI); assay type: cell-based; details: 96 h
Procedure, shortened: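 AsPC-1 cells in 15% FBS RPMI-1640 were exposed to test compound for 96 hours at 37° C, with CellTiter-Glo as endpoint.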

Row | SMILES | IC50 [1] [nM] | IC50 [2] [nM]
1 | CC[C@H](C)[C@@H]1NC(=O)[C@H](CC(F)(F)F)N(C)C(=O)C[C@@H](C(=O)N2CCCCC2)N(C)C(=O)[C@H](C2CCCCC2)N(C)C(=O)C2(CCCC2)NC(=O)[C@@H]2CCCN2C(=O)[C@H](CCc2ccc(C(F)(F)F)c(Cl)c2)NC(=O)CN(C)C(=O)[C@H](CC2CCCCC2)N(C)C(=O)CN(C)C(=O)CN(C)C1=O [Compound 1701] ([NMeAbu(4,4,4-F3)]I[Sar][Sar][NMeCha][Sar][hPhe(3-Cl-4-CF3)]P[Ac5c][NMeChg][NMeD]-Piperidide; lactam N-11) | 0.75 | 20 to 50
2 | CC[C@H](C)[C@@H]1NC(=O)[C@H](CC)N(C)C(=O)C[C@@H](C(=O)N2CCCC2)N(C)C(=O)[C@H](C2CCCCC2)N(C)C(=O)C2(CCCC2)NC(=O)[C@@H]2CCCN2C(=O)[C@H](CCc2ccc(C(F)(F)F)c(Cl)c2)NC(=O)CN(C)C(=O)[C@H](CC2CCCCC2)N(C)C(=O)CN(C)C(=O)CN(C)C1=O [Compound 1958] ([NMeAbu]I[Sar][Sar][NMeCha][Sar][hPhe(3-Cl-4-CF3)]P[Ac5c][NMeChg][NMeD]-Pyrrolidide; lactam N-11) | 0.45 | 20 to 50
3 | CCC[C@H]1C(=O)N[C@@H]([C@@H](C)CC)C(=O)N(C)CC(=O)N(C)CC(=O)N(C)[C@@H](Cc2ccc(C(F)(F)F)cc2)C(=O)N(C)CC(=O)N[C@@H](CCc2ccc(C(F)(F)F)c(Cl)c2)C(=O)N2CCC[C@H]2C(=O)NC2(CCCC2)C(=O)N(C)[C@@H](C2CCCCC2)C(=O)N(C)[C@H](C(=O)N2CCOCC2)CC(=O)N1C [Compound 1972] ([NMeNva]I[Sar][Sar][NMePhe(4-CF3)][Sar][hPhe(3-Cl-4-CF3)]P[Ac5c][NMeChg][NMeD]-Morpholide; lactam N-11) | 0.37 | 20 to 50
4 | CC[C@H](C)[C@@H]1NC(=O)[C@H](CC(C)C)N(C)C(=O)C[C@@H](C(=O)N(C)C)N(C)C(=O)[C@H]([C@@H](C)CC)N(C)C(=O)C2(CCCC2)NC(=O)[C@H](Cc2cccc(F)c2)N(C)C(=O)[C@H](CCc2ccc(C(F)(F)F)c(Cl)c2)NC(=O)CN(C)C(=O)[C@H](Cc2ccc(C)cc2)N(C)C(=O)[C@@H]2CCN2C(=O)[C@H](C)N(C)C1=O [Compound 1000] ([NMeL]I[NMeA][Aze][NMePhe(4-Me)][Sar][hPhe(3-Cl-4-CF3)][NMePhe(3-F)][Ac5c][NMeI][NMeD]-NMe2; lactam N-11) | 2.6 | 20 to 50
5 | CCC[C@H]1C(=O)N[C@@H]([C@@H](C)CC)C(=O)N(C)CC(=O)N(C)CC(=O)N(C)[C@@H](CC2CCCCC2)C(=O)N(C)CC(=O)N[C@@H](CCc2ccc(C(F)(F)F)c(Cl)c2)C(=O)N2CCC[C@H]2C(=O)NC2(CCCC2)C(=O)N(C)[C@@H](C2CCCCC2)C(=O)N(C)[C@H](C(=O)N2CCCCC2)CC(=O)N1C [Compound 778] ([NMeNva]I[Sar][Sar][NMeCha][Sar][hPhe(3-Cl-4-CF3)]P[Ac5c][NMeChg][NMeD]-Piperidide; lactam N-11) | 0.7 | 20 to 50
6 | CC[C@H](C)[C@@H]1NC(=O)[C@H](CC(C)C)N(C)C(=O)C[C@@H](C(=O)N2CCOCC2)N(C)C(=O)[C@H](C2CCCCC2)N(C)C(=O)C2(CCCC2)NC(=O)[C@@H]2CCCN2C(=O)[C@H](CCc2ccc(C(F)(F)F)cc2)NC(=O)CN(C)C(=O)[C@H](CC2CCCCC2)N(C)C(=O)CN(C)C(=O)CN(C)C1=O [Compound 1947] ([NMeL]I[Sar][Sar][NMeCha][Sar][hPhe(4-CF3)]P[Ac5c][NMeChg][NMeD]-Morpholide; lactam N-11) | 1.2 | 50 to 100
7 | CC[C@H](C)[C@@H]1NC(=O)[C@H](CC(F)(F)F)N(C)C(=O)C[C@@H](C(=O)N2CCOCC2)N(C)C(=O)[C@H](C2CCCCC2)N(C)C(=O)C2(CCCC2)NC(=O)[C@@H]2CCCN2C(=O)[C@H](CCc2ccc(C(F)(F)F)c(Cl)c2)NC(=O)CN(C)C(=O)[C@H](CC2CCCCC2)N(C)C(=O)CN(C)C(=O)CN(C)C1=O [Compound 774] ([NMeAbu(4,4,4-F3)]I[Sar][Sar][NMeCha][Sar][hPhe(3-Cl-4-CF3)]P[Ac5c][NMeChg][NMeD]-Morpholide; lactam N-11) | 0.55 | 20 to 50
8 | CC(C)C[C@H]1C(=O)N[C@@H](C(C)C)C(=O)N(C)CC(=O)N(C)CC(=O)N(C)[C@@H](CC2CCCCC2)C(=O)N(C)CC(=O)N[C@@H](CCc2ccc(C(F)(F)F)c(Cl)c2)C(=O)N2CCC[C@H]2C(=O)NC2(CCCC2)C(=O)N(C)[C@@H](C2CCCCC2)C(=O)N(C)[C@H](C(=O)N2C3CCC2COC3)CC(=O)N1C [Compound 1928] ([NMeL]V[Sar][Sar][NMeCha][Sar][hPhe(3-Cl-4-CF3)]P[Ac5c][NMeChg][NMeD]-{3Oxa8azabicyclo(3.2.1)octane}; lactam N-11) | 0.5 | 100 to 500
9 | CC[C@H](C)[C@@H]1NC(=O)[C@H](CC(C)C)N(C)C(=O)C[C@@H](C(=O)N2CCCC2)N(C)C(=O)[C@H](C2CCCC2)N(C)C(=O)C2(CCCC2)NC(=O)[C@@H]2CCCN2C(=O)[C@H](CCc2ccc(C(F)(F)F)c(Cl)c2)NC(=O)CN(C)C(=O)[C@H](Cc2ccc(C)cc2)N(C)C(=O)CN(C)C(=O)CN(C)C1=O [Compound 1761] ([NMeL]I[Sar][Sar][NMePhe(4-Me)][Sar][hPhe(3-Cl-4-CF3)]P[Ac5c][NMeGly(cPent)][NMeD]-Pyrrolidide; lactam N-11) | 0.41 | 20 to 50
10 | CC[C@H](C)[C@@H]1NC(=O)[C@H](CC2CCCCC2)N(C)C(=O)C[C@@H](C)NC(=O)[C@H](C(C)C)N(C)C(=O)C2(CCCC2)NC(=O)[C@@H]2CCCN2C(=O)[C@H](CCc2ccc(C(F)(F)F)c(Cl)c2)NC(=O)CN(C)C(=O)[C@H](CC2CCCCC2)N(C)C(=O)CN(C)C(=O)CN(C)C1=O [Compound 285] (cyclo([Ac5c][NMeV][d(β3hA)][NMeCha]I[Sar][Sar][NMeCha][Sar][hPhe(3-Cl-4-CF3)]P)) | 52 | 100 to 500
11 | CC[C@H](C)[C@@H]1NC(=O)[C@H](CC)N(C)C(=O)C[C@@H](C(=O)N2CCCC2)N(C)C(=O)[C@H](C2CCCCC2)N(C)C(=O)C2(CCCC2)NC(=O)[C@@H]2CCCN2C(=O)[C@H](CCc2ccc(C(F)(F)F)c(Cl)c2)NC(=O)CN(C)C(=O)[C@H](Cc2ccc(C(F)(F)F)cc2)N(C)C(=O)CN(C)C(=O)CN(C)C1=O [Compound 1890] ([NMeAbu]I[Sar][Sar][NMePhe(4-CF3)][Sar][hPhe(3-Cl-4-CF3)]P[Ac5c][NMeChg][NMeD]-Pyrrolidide; lactam N-11) | 0.55 | 20 to 50
12 | CC[C@H](C)[C@@H]1NC(=O)[C@H](CC(C)C)N(C)C(=O)C[C@@H](C(=O)N2CCCCC2)N(C)C(=O)[C@H](C2CCC2)N(C)C(=O)C2(CCCC2)NC(=O)[C@@H]2CCCN2C(=O)[C@H](CCc2ccc(C(F)(F)F)c(Cl)c2)NC(=O)CN(C)C(=O)[C@H](CC2CCCCC2)N(C)C(=O)CN(C)C(=O)CN(C)C1=O [Compound 1128] ([NMeL]I[Sar][Sar][NMeCha][Sar][hPhe(3-Cl-4-CF3)]P[Ac5c][NMeGly(cBu)][NMeD]-Piperidide; lactam N-11) | 2.1 | 100 to 500
13 | CC[C@H](C)[C@@H]1NC(=O)[C@H](C2CCCCC2)N(C)C(=O)C[C@@H](C(=O)N2CCCCC2)N(C)C(=O)[C@H](C2CCCCC2)N(C)C(=O)C2(CCCC2)NC(=O)[C@@H]2CCCN2C(=O)[C@H](CCc2ccc(C(F)(F)F)c(Cl)c2)NC(=O)CN(C)C(=O)[C@H](CC2CCCCC2)N(C)C(=O)CN(C)C(=O)CN(C)C1=O [Compound 849] ([NMeChg]I[Sar][Sar][NMeCha][Sar][hPhe(3-Cl-4-CF3)]P[Ac5c][NMeChg][NMeD]-Piperidide; lactam N-11) | 1.9 | 100 to 500
14 | CC[C@H](C)[C@@H]1NC(=O)[C@H](CC(C)C)N(C)C(=O)C[C@@H](C(=O)N2CCCCC2)N(C)C(=O)[C@H](C2CCCCC2)N(C)C(=O)C2(CCCC2)NC(=O)[C@@H]2CCCN2C(=O)[C@H](CCc2ccc(C(F)(F)F)c(Cl)c2)NC(=O)CN(CC)C(=O)[C@H](CC2CCCCC2)N(C)C(=O)CN(C)C(=O)CN(C)C1=O [Compound 1203] ([NMeL]I[Sar][Sar][NMeCha][NEtG][hPhe(3-Cl-4-CF3)]P[Ac5c][NMeChg][NMeD]-Piperidide; lactam N-11) | 2.1 | 100 to 500
15 | CC[C@H](C)[C@@H]1NC(=O)[C@H](C)N(C)C(=O)C[C@@H](C(=O)N2CCCCC2)N(C)C(=O)[C@H](C2CCCCC2)N(C)C(=O)C2(CCCC2)NC(=O)[C@@H]2CCCN2C(=O)[C@H](CCc2ccc(C)cc2)NC(=O)CN(C)C(=O)[C@H](CC2CCCCC2)N(C)C(=O)CN(C)C(=O)CN(C)C1=O [Compound 1055] ([NMeA]I[Sar][Sar][NMeCha][Sar][X33]P[Ac5c][NMeChg][NMeD]-Piperidide; lactam N-11) | 2.2 | 100 to 500
16 | CC[C@H](C)[C@@H]1NC(=O)[C@H](CC(C)C)N(C)C(=O)C[C@@H](C(=O)N(C)C)N(C)C(=O)[C@H](C2CCCC2)N(C)C(=O)C2(CCCC2)NC(=O)[C@H](CCC(=O)NC)N(C)C(=O)[C@H](CCc2ccc(C(F)(F)F)c(Cl)c2)NC(=O)CN(C)C(=O)[C@H](CC2CCCCC2)N(C)C(=O)[C@@H]2CCN2C(=O)[C@H](C)N(C)C1=O [Compound 1921] ([NMeL]I[NMeA][Aze][NMeCha][Sar][hPhe(3-Cl-4-CF3)][NMeE](NHMe)[Ac5c][NMeGly(cPent)][NMeD]-NMe2; lactam N-11) | 0.83 | 100 to 500
17 | CC[C@H](C)[C@@H]1NC(=O)[C@H](CC)N(C)C(=O)C[C@@H](C(=O)N2C3CCC2COC3)N(C)C(=O)[C@H](C2CCCCC2)N(C)C(=O)C2(CCCC2)NC(=O)[C@@H]2CCCN2C(=O)[C@H](CCc2ccc(C(F)(F)F)c(Cl)c2)NC(=O)CN(C)C(=O)[C@H](Cc2ccc(C)cc2)N(C)C(=O)CN(C)C(=O)CN(C)C1=O [Compound 1963] ([NMeAbu]I[Sar][Sar][NMePhe(4-Me)][Sar][hPhe(3-Cl-4-CF3)]P[Ac5c][NMeChg][NMeD]-{3Oxa8azabicyclo(3.2.1)octane}; lactam N-11) | 0.63 | 50 to 100
